Assay results as given in article PMC11358582, “Discovery of a potential bladder cancer inhibitor CHNQD-01281 by regulating EGFR and promoting infiltration of cytotoxic T cells” (Marine Life Science & Technology, 2024).
In brackets after ≈: the same amount, converted by molar mass.

Tests used:
[1] = Solubility in selected aqueous solutions; type: physicochemical
Excerpt: The problem of poor water solubility is one of the factors that seriously restricts the preclinical application of BFA. Therefore, from the perspective of pharmaceutics, it is of great application value to explore safe and effective methods to improve its solubility. Based on the previous screening of commonly used solvents, solubilizers and co-solvents for BFA and its derivatives, we explored the solubility of CHNQD-01281, which was compared and assessed in selected aqueous solutions (Table 1). Saline or PBS were commonly used solvents, but the solubility of BFA or CHNQD-01281 was less than 1 mg/mL when used alone. No significant improvement in solubility was observed after the addition of DMSO or PEG400. […] More importantly, the solution system of CHNQD-01281 with saline/DMSO/solutol HS-15 (85/5/10) can fully meet the needs of follow-up experiments in vivo, such as pharmacodynamics, pharmacokinetics and safety evaluation.

[2] = system: human hepatocyte cell line L-02; assay: MTT cell proliferation assay; type: cell-based; conditions: L-02, MTT, 72 h
Procedure: (§1) Human tumor cell lines Eca-109, BEL-7402, BxPC-3, HCT-116, HT-29, T24, HCT-8, SGC-7901, DLD-1, TE-1, BT-549, MGC-803 and human hepatocyte cell line L-02 were cultured in Roswell Park Memorial Institute (RPMI) 1640. HuH-7 and SW-480 were cultured in Dulbecco’s modified Eagle’s medium (DMEM). J82, HepG2, Hela, U87 were cultured in Minimum Essential Medium (MEM). Murine bladder cancer cell line, MB49, was cultured in DMEM. The above-mentioned culture medium was provided by GIBCO (Grand Island, USA), contained 10% fetal bovine serum (PAN, Germany), 10 mg/mL of streptomycin, and 10 kU/mL penicillin (Beyotime, China).
(§2) Cells were seeded in 96-well plates and incubated with indicated concentrations of CHNQD-01281 for indicated periods. Next, medium was discarded and MTT (5 mg/mL) was added to each well. The cells were incubated at 37 °C for another 4 h. After that, supernatant was discarded, and DMSO was added and incubated at 37 °C for 15 min. Finally, absorbance was measured at 570 nm (Molecular Devices, USA).
Thus, the bladder cancer cell lines J82 and T24 were further investigated and treated by CHNQD-01281 under gradient concentrations (0.031−1.00 µmol/L) and times (24, 72 and 120 h) to measure proliferation activities (Fig. 2B). However, the inhibition of T24 or J82 cell lines by CHNQD-01281 was less than 50% even at the highest concentration of 1 µmol/L for 24 h. […] Therefore, CHNQD-01281 has a higher selectivity index compared to BFA.

[3] = system: T24 cells; assay: MTT cell proliferation assay; type: cell-based, human
Procedure: as §1, §2
To investigate whether CHNQD-01281 had selective inhibitory effect on cancer cell lines, a variety of human tumor cell lines were assayed by MTT, such as bladder cancer cell lines (J82 and T24), colorectal cancer cell lines (HCT-116, HT-29, HCT-8, DLD-1 and SW-480), cervical cancer cell line (Hela), esophageal cancer cell lines (TE-1 and Eca-109), breast cancer cell line (BT-549), gastric carcinoma cell lines (MGC-803 and SGC-7901), glioma cell line (U87), pancreatic carcinoma cell line (BxPC-3) and hepatocellular carcinoma cell lines (Hep G2, BEL-7402 and HuH-7) (Fig. 2A).

What does the source list for `C[C@H]1CCC/C=C/[C@@H]2C[C@H](O)C[C@H]2[C@H](O)/C=C/C(=O)O1` [BFA, Brefeldin A, reference compound]?
solubility ([1]; 25 °C, pH 7.4, aqueous with cosolvent or surfactant or cyclodextrin, No. 2: Saline/DMSO 95/5, pH 7.4, 25 °C): < 1000 µg/mL; solubility ([1]; 25 °C, pH 7.4, aqueous with cosolvent or surfactant or cyclodextrin, No. 3: PBS/DMSO 95/5, pH 7.4, 25 °C): < 1000 µg/mL; solubility ([1]; 25 °C, pH 7.4, aqueous with cosolvent or surfactant or cyclodextrin, No. 4: Saline/PEG400 95/5, pH 7.4, 25 °C): < 1000 µg/mL; solubility ([1]; 25 °C, pH 7.4, aqueous with cosolvent or surfactant or cyclodextrin, No. 5: Saline/PEG400 80/20, pH 7.4, 25 °C): < 1000 µg/mL; solubility ([1]; 25 °C, pH 7.4, aqueous with cosolvent or surfactant or cyclodextrin, No. 6: Saline/DMSO/solutol HS-15 85/5/10, pH 7.4, 25 °C): 1000 to 1500 µg/mL (≈ 3.57 to 5.35 mM); solubility ([1]; 25 °C, pH 7.4, aqueous with cosolvent or surfactant or cyclodextrin, No. 7: Saline/solutol HS-15 95/5, pH 7.4, 25 °C): < 1000 µg/mL; solubility ([1]; 25 °C, pH 7.4, aqueous with cosolvent or surfactant or cyclodextrin, No. 8: Saline/solutol HS-15 90/10, pH 7.4, 25 °C): < 1000 µg/mL; solubility ([1]; 25 °C, pH 7.4, saline or isotonic, No. 1: Saline (0.9% NaCl) 100, pH 7.4, 25 °C): < 1000 µg/mL; solubility ([1]; Saline or PBS used alone): < 1000 µg/mL; IC50 [2]: 42 nM; IC50 ([3]; Homo sapiens, T-24, T24, MTT, 72 h): 22 nM; SI (selectivity index) ([3]; L-02 versus T24): 1.91
